Laboratory results from paper PMC5853561, “Affinity purification with metabolomic and proteomic analysis unravels diverse roles of nucleoside diphosphate kinases” (Journal of Experimental Botany, 2017).

How the values were obtained:
[1] = target: T1, NDPK1 recombinant protein (AtNDPK1) (Arabidopsis thaliana, UniProt P39207); experiment: coupled pyruvate kinase-lactate dehydrogenase assay, NADH at […] nm; assay type: biochemical; settings: phosphate acceptor, ATP as donor; 4 mM TDP
T1 construct: gene NDK1; recombinant protein from commercial supplier (MyBioSource)
T1 sequence (P39207 1-149): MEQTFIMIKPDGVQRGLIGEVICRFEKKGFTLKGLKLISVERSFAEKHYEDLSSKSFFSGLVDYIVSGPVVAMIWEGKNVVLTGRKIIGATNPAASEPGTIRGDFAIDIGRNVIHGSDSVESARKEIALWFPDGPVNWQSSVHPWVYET

[2] = target: T1, NDPK1 recombinant protein (AtNDPK1); experiment: as above; assay type: biochemical; settings: inhibitor; 500 uM cGMP; ATP and 4 mM TDP as substrates

Row | specific activity, % of control at 500 uM [2] | SMILES | coupled pyruvate kinase-lactate dehydrogenase assay, NADH at 340 nm [1]
1 | – | Cc1cn([C@H]2C[C@H](O)[C@@H](COP(=O)(O)OP(=O)(O)O)O2)c(=O)[nH]c1=O [TDP] | TDP was used as a NDPK1 substrate and phosphate group acceptor
2 | 51% | Nc1nc2c(ncn2[C@@H]2O[C@@H]3COP(=O)(O)O[C@H]3[C@H]2O)c(=O)[nH]1 [3',5'-cGMP] | –
